Reference: patent US20230372262A1, “COMPOSITION FOR TREATING VASCULAR DISEASE, COMPOSITION FOR REVENTING VASCULAR DISEASE, COMPOSITION FOR TREATING HYPERTENSION, AND COMPOSITION FOR PREVENTING HYPERTENSION” (KINKI UNIVERSITY, priority 2020, published 2023)

Legend:
[1] = system: rat abdominal aorta (elastic lamina); assay: Recovery of elastic fibra in cultured abdominal aorta after nicotine (Example 8); conditions: for Evaluation (rate of destruction): as Table 9; for Rate of destruction (%) of elastic lamina: rat abdominal aorta, nicotine 24 h, then nothing, 24 h nicotine-free medium, or 24 h β-caryophyllene 100 nM
[2] = system: rat abdominal aorta (elastic lamina); assay: Rate of destruction of elastic lamina in cultured abdominal aorta with nicotine, EVG staining (Examples 5 to 7); conditions: as Table 7 rate of destruction
Description: Unnecessary surrounding tissues were removed from the harvested abdominal aorta, which was then dipped in a medium for aorta culture. […] These abdominal aorta specimens were cultured in a medium for aorta culture under conditions of 37° C. and 5% CO2 for 24 hours. […] Specifically, the aortic wall was stained by Elastica van Gieson (EVG) staining and immunohistochemical staining. The quantitative analysis of the histochemical stain was carried out using ImageJ software (National Institutes of Health, Bethesda, Maryland, USA). Since an elastic lamina waveform is EVG-stained, the destruction of the vascular wall was estimated from the ratio of its area. The rate of destruction of the wavy configuration of elastic lamina was calculated by dividing a destroyed region (indicated by flattening and fragmentation of elastic lamina) by the whole region of the elastic lamina.

[3] = system: elastic lamina of thoracic aorta and abdominal aorta; assay: Rate of destruction of elastic lamina in aorta of mice given nicotine water and inhaled β-caryophyllene (Example 9); format: in vivo, ddy mice; conditions: for Evaluation (rate of destruction): as Table 10; for Rate of destruction (%) of elastic lamina: mouse aorta, nicotine 0.5 mg/mL in drinking water and/or β-caryophyllene inhalation 1 hour per exposure day
Description: After the test, thoracic aorta and abdominal aorta were obtained by dissection. Each harvested aorta was Elastica van Gieson (EVG)-stained to measure and evaluate the rate of destruction of elastic lamina.

| SMILES | Evaluation (rate of destruction) [1] | Rate of destruction (%) of elastic lamina [1] | Evaluation (rate of destruction) [2] | Evaluation (rate of destruction) [3] | Rate of destruction (%) of elastic lamina [3] |
| --- | --- | --- | --- | --- | --- |
| CN1CCCC1c1cccnc1 (single isomer, unassigned) [Comparative Example 4, nicotine] | B (a rate of destruction of more than 35% was given B) | 54% |  |  |  |
| CN1CCCC1c1cccnc1 (single isomer, unassigned) [Comparative Example 5, nicotine] | B (a rate of destruction of more than 35% was given B) | 58% |  |  |  |
| CN1CCCC1c1cccnc1 (stereo not drawn) [Comparative Example 2, nicotine, reference compound] |  |  | B (When the rate of destruction of the elastic lamina waveform was 30% or more, the sample was evaluated as having a state in which the vascular wall was destroyed (evaluation B)) |  |  |
| C=C1CC/C=C(\C)CC[C@@H]2[C@@H]1CC2(C)C [Comparative Example 7, β-caryophyllene] |  |  |  | A (When the rate of destruction of the elastic lamina waveform was less than 30%, the sample was evaluated as having a state in which the vascular wall was not destroyed (evaluation A)) | 11% |
| CN1CCCC1c1cccnc1 (stereo not drawn) [Comparative Example 8, nicotine, reference compound] |  |  |  | B (When the rate of destruction of the elastic lamina waveform was 30% or more, the sample was evaluated as having a state in which the vascular wall was destroyed (evaluation B)) | 42% |
| C=C1CC/C=C(\C)CC[C@@H]2[C@@H]1CC2(C)C [Example 5, β-caryophyllene] |  |  | A (When the rate of destruction of the elastic lamina waveform was less than 30%, the sample was evaluated as having a state in which the vascular wall was not destroyed (evaluation A)) |  | 15% |
| C=C1CC/C=C(\C)CC[C@@H]2[C@@H]1CC2(C)C [Example 8, β-caryophyllene] | A (A rate of destruction of 35% or less was given evaluation A) | 18% |  |  |  |
| C=C1CC/C=C(\C)CC[C@@H]2[C@@H]1CC2(C)C [Example 9, β-caryophyllene] |  |  |  | A (When the rate of destruction of the elastic lamina waveform was less than 30%, the sample was evaluated as having a state in which the vascular wall was not destroyed (evaluation A)) | 15% |
